Experimental data from PubChem BioAssay AID602479 (National Center for Advancing Translational Sciences (NCATS), 2012).

System: mouse liver microsomes, metabolic half-life
Test: qHTS Assay for Inhibitors of Bacillus subtilis Sfp phosphopantetheinyl transferase (PPTase): Mouse Liver Microsome Stability (Half Time)
Excerpt: PPTases are responsible for the activation of a variety of pathogen-associated virulence factors. Among these compounds are toxins such as mycolactone from Mycobacterium ulcerans, siderophores such as vibriobactin from Vibrio cholerae or mycobactin from Mycobacterium tuberculosis, as well as the mycolic acids which form the waxy cell wall of Mycobacteria. The biosyntheses of these natural products are considered attractive targets for drug design. After a large qHTS and several follow-up assays, a small molecule was identified and this in vitro ADME assay serves to better characterize its properties.
This bioassay provides profiling data on mouse liver microsome stability.
NIH Chemical Genomics Center [NCGC]
NIH Molecular Libraries Probe Centers Network [MLPCN]
Assay Submitter (PI): Michale Burkart, University of California, San Diego
1uM of compound in incubated in mouse liver microsome; the reference compound is ketanserin. Compounds are incubated at 37 degrees C for different time periods: 0, 5, 15, 30, 45, and 60 minutes. Samples are analyzed with LC-MS/MS.

- microsomal half-life: 49.5 min
SMILES: COc1ccnc(NC(=S)N2CCN(c3ncc(C(F)(F)F)cc3Cl)CC2)c1
